According to ChEMBL document CHEMBL5352396, “Synthesis and biological evaluation of novel FiVe1 derivatives as potent and selective agents for the treatment of mesenchymal cancers” (Eur J Med Chem, 2022):
Converted amounts (≈) assume the structure as drawn. The source made the active and inactive calls. No cut-off for these calls is given here.

Assays:
GCT = test: cells; conditions: Homo sapiens, 72 h
HT-1080 = test: cells; conditions: Homo sapiens, HT-1080, 72 h
MCF7 = test: cells; conditions: Homo sapiens, MCF7, 72 h
[1] = Kinetic solubility of the compound in DPBS buffer at pH 7.4 incubated for 16 hrs under shaking condition by HPLC analysis; format: physicochemical; conditions: read-out: Kinetic_solubility
RD = test: cells; conditions: Homo sapiens, 72 h
[2] = Metabolic stability in CD-1 mouse liver microsomes assessed as half life at 100 uM measured upto 60 mins in presence of NADPH by LC-MS/MS analysis; format: ADME, Microsome; conditions: for t1/2: mouse, microsomes, 1 h, 100 µM
[3] = Metabolic stability in CD-1 mouse liver microsomes assessed as parent compound remaining at 100 uM measured after 60 mins in presence of NADPH by LC-MS/MS analysis; format: ADME, Microsome; conditions: read-out: Stability
[4] = Metabolic stability in CD-1 mouse liver microsomes assessed as intrinsic clearance at 100 uM measured upto 60 mins in presence of NADPH by LC-MS/MS analysis; format: ADME, Microsome; conditions: for microsomal intrinsic clearance: mouse, microsomes, 1 h, 100 µM
Vimentin (Homo sapiens) [5] = biological target: Vimentin (Homo sapiens) (UniProt P08670); test: Induction of Vimentin phosphorylation in human GCT cells at 1 uM incubated for 24 hrs by Western blot analysis; format: cell-based
Vimentin (Homo sapiens) [6] = biological target: Vimentin (Homo sapiens) (UniProt P08670); test: Induction of Vimentin phosphorylation in human HT-1080 cells at 1 uM incubated for 24 hrs by Western blot analysis; format: cell-based
Vimentin (Homo sapiens) [7] = biological target: Vimentin (Homo sapiens) (UniProt P08670); test: Induction of Vimentin phosphorylation in human RD cells at 1 uM incubated for 24 hrs by Western blot analysis; format: cell-based

Vimentin (Homo sapiens), sequence (P08670 whole entry): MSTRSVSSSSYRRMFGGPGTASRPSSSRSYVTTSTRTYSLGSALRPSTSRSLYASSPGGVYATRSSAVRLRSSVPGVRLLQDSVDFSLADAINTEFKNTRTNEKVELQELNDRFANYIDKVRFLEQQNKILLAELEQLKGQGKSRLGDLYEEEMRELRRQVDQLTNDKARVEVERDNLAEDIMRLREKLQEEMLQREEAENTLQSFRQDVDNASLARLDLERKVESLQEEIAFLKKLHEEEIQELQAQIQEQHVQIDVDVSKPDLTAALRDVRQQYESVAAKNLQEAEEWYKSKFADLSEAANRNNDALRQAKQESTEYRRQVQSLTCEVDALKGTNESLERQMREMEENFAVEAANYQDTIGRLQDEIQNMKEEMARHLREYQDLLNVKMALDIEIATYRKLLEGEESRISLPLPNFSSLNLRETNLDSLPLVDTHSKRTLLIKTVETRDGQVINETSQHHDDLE

Row | SMILES | IC50 (GCT) | IC50 (HT-1080) | IC50 (MCF7) | solubility kinetic at 16 h [1] | IC50 (RD) | t1/2 [2] | remaining at 1 h, 100 µM [3] | microsomal intrinsic clearance [4] | half-life at 100 µM ([2]; CD-1, mouse, liver microsomes) | microsomal CLint at 100 µM ([4]; CD-1, mouse, liver microsomes, read-out: CLH) | Activity (Vimentin (Homo sapiens) [5]) | Activity (Vimentin (Homo sapiens) [6]) | Activity (Vimentin (Homo sapiens) [7])
1 | OC(O)COc1cc(Cl)cc(N2CCN(c3cnnc4c(Cl)cccc34)CC2)c1 |  |  |  |  |  |  | 35.7% |  | 42.7 min | 32.5 µL/min/mg |  |  | 
2 | Fc1ccc(N2CCN(c3cnnc4c(Cl)cccc34)CC2)cc1Cl |  |  |  |  |  | 6.7 min | 0.4% | 205.8 µL/min/mg |  |  |  |  | 
3 | COCCOc1cc(Cl)cc(N2CCN(c3cnnc4c(Cl)cccc34)CC2)c1 | 1.06 µM | 1.7 µM | > 20 µM | < 1 µM | 1.35 µM |  |  |  |  |  |  |  | 
4 | Fc1c(Cl)cc(N2CCN(c3cnnc4c(Cl)cccc34)CC2)cc1Cl |  |  |  |  |  | 32.5 min | 29.6% | 42.6 µL/min/mg |  |  |  |  | 
5 | Clc1cccc(N2CC3CC2CN3c2cnnc3c(Cl)cccc23)c1 (centres undefined) | 8.86 µM | 3.23 µM | > 20 µM |  | 5.6 µM |  |  |  |  |  |  |  | 
6 | Clc1cccc(N2CCCN(c3cnnc4c(Cl)cccc34)CC2)c1 | > 20 µM | > 20 µM | > 20 µM |  | > 20 µM |  |  |  |  |  |  |  | 
7 | CC(=O)Nc1cc(Cl)cc(N2CCN(c3cnnc4c(Cl)cccc34)CC2)c1 | 10.8 µM | 10.8 µM | > 20 µM |  | 7.41 µM |  |  |  |  |  |  |  | 
8 | COC(=O)CCOc1cc(Cl)cc(N2CCN(c3cnnc4c(Cl)cccc34)CC2)c1 | 1 µM | 0.979 µM | > 20 µM | 82 µM (≈ 37.8 µg/mL) | 1.12 µM | 35.5 min | 28.9% | 39 µL/min/mg |  |  |  |  | 
9 | OCCOc1cc(Cl)cc(N2CCN(c3cnnc4c(Cl)cccc34)CC2)c1 | 0.667 µM | 0.5 µM | > 20 µM | 13 µM (≈ 5.45 µg/mL) | 0.407 µM | 19.1 min | 10.5% | 72.5 µL/min/mg |  |  |  |  | 
10 | N#Cc1cc(Cl)cc(N2CCN(c3cnnc4c(Cl)cccc34)CC2)c1 | 0.189 µM | 0.378 µM | > 20 µM |  | 0.402 µM |  |  |  |  |  |  |  | 
11 | Clc1cccc(N2CCN(c3cc(-c4ccccc4)ncn3)CC2)c1 | > 20 µM | > 20 µM | > 20 µM |  | > 20 µM |  |  |  |  |  |  |  | 
12 | Clc1cccc(N2CCN(c3cnnc4ccccc34)CC2)c1 | > 20 µM | > 20 µM | > 20 µM |  | > 20 µM |  |  |  |  |  |  |  | 
13 | Clc1cccc(N2CCN(c3ccnc4ccccc34)CC2)c1 | > 20 µM | > 20 µM | > 20 µM |  | > 20 µM |  |  |  |  |  |  |  | 
14 | Clc1cccc(N2CCN(c3ccnc4c(Cl)cccc34)CC2)c1 | > 20 µM | > 20 µM | > 20 µM |  | > 20 µM |  |  |  |  |  | inactive | inactive | inactive
15 | Clc1cccc(C2CCN(c3cnnc4c(Cl)cccc34)CC2)c1 | > 20 µM | > 20 µM | > 20 µM |  | > 20 µM |  |  |  |  |  |  |  | 
16 | Clc1cc(N2CCCC2)cc(N2CCN(c3cnnc4c(Cl)cccc34)CC2)c1 | > 20 µM | > 20 µM | > 20 µM |  | > 20 µM |  |  |  |  |  |  |  | 
17 | Clc1cccc(N2CCN(c3ccnnc3)CC2)c1 | > 20 µM | > 20 µM | > 20 µM |  | > 20 µM |  |  |  |  |  |  |  | 
18 | COc1cccc(N2CCN(c3cnnc4c(Cl)cccc34)CC2)c1 | 0.402 µM | 0.598 µM | > 20 µM |  | 0.884 µM |  |  |  |  |  |  |  | 
19 | NCCOc1cc(Cl)cc(N2CCN(c3cnnc4c(Cl)cccc34)CC2)c1 | 3.55 µM | 3.89 µM | > 20 µM | 38 µM (≈ 15.9 µg/mL) | 4.58 µM | > 145 min | 78.7% | < 9.6 µL/min/mg |  |  |  |  | 
20 | Clc1cc(Cl)cc(N2CCN(c3cnnc4c(Cl)cccc34)CC2)c1 | 0.315 µM | 0.412 µM | > 20 µM |  | 0.623 µM |  |  |  |  |  |  |  | 
21 | COc1cccc2c(N3CCN(c4cccc(Cl)c4)CC3)cnnc12 | > 20 µM | > 20 µM | > 20 µM |  | > 20 µM |  |  |  |  |  |  |  | 

The next lines start with the values.

Row | IC50 (GCT) | IC50 (HT-1080) | IC50 (MCF7) | solubility kinetic at 16 h [1] | IC50 (RD) | t1/2 [2] | remaining at 1 h, 100 µM [3] | microsomal intrinsic clearance [4] | half-life at 100 µM ([2]; CD-1, mouse, liver microsomes) | microsomal CLint at 100 µM ([4]; CD-1, mouse, liver microsomes, read-out: CLH) | Activity (Vimentin (Homo sapiens) [5]) | Activity (Vimentin (Homo sapiens) [6]) | Activity (Vimentin (Homo sapiens) [7]) | SMILES
22 | > 20 µM | > 20 µM | > 20 µM | < 1 µM | > 20 µM |  |  |  |  |  |  |  |  | Clc1cc(OCCN2CCOCC2)cc(N2CCN(c3cnnc4c(Cl)cccc34)CC2)c1
23 | 2.93 µM |  | > 20 µM | < 1 µM | 19.1 µM |  |  |  |  |  |  |  |  | COC(COc1cc(Cl)cc(N2CCN(c3cnnc4c(Cl)cccc34)CC2)c1)OC
24 |  | 2.72 µM | 4.56 µM | 48 µM (≈ 22.1 µg/mL) | 3.69 µM |  |  |  |  |  |  |  |  | CN(C)CCCOc1cc(Cl)cc(N2CCN(c3cnnc4c(Cl)cccc34)CC2)c1
25 | > 20 µM | > 20 µM | > 20 µM |  | > 20 µM |  |  |  |  |  |  |  |  | COc1ccc2c(N3CCN(c4cccc(Cl)c4)CC3)cnnc2c1Cl
26 | 0.033 µM | 0.037 µM | 15.5 µM |  | 0.033 µM | 2.1 min | 0.1% | 657.4 µL/min/mg |  |  |  |  |  | COc1cc(OC)cc(N2CCN(c3cnnc4c(Cl)cccc34)CC2)c1
27 | > 20 µM | > 20 µM | > 20 µM | < 1 µM | > 20 µM |  |  |  |  |  |  |  |  | Clc1cc(OCCOC2CCCCO2)cc(N2CCN(c3cnnc4c(Cl)cccc34)CC2)c1 (centres undefined)
28 | 0.756 µM | 1.53 µM | > 20 µM | > 200 µM | 1.12 µM |  |  |  |  |  |  |  |  | O=C(O)CCOc1cc(Cl)cc(N2CCN(c3cnnc4c(Cl)cccc34)CC2)c1
29 | 6.49 µM | 4.72 µM | 16 µM | 131 µM (≈ 58.5 µg/mL) | 7.02 µM |  |  |  |  |  |  |  |  | CN(C)CCOc1cc(Cl)cc(N2CCN(c3cnnc4c(Cl)cccc34)CC2)c1
30 | 4.03 µM | 5.57 µM | > 20 µM |  | 6.15 µM |  |  |  |  |  |  |  |  | Clc1cccc(N2C[C@H]3CC[C@@H](C2)N3c2cnnc3c(Cl)cccc23)c1
31 | > 20 µM | > 20 µM | > 20 µM |  | > 20 µM |  |  |  |  |  |  |  |  | Clc1cccc(N2C[C@@H]3CN(c4cnnc5c(Cl)cccc45)C[C@@H]3C2)c1
32 | 0.057 µM | 0.086 µM | 12.1 µM |  | 0.083 µM |  |  |  |  |  |  |  |  | Oc1cc(Cl)cc(N2CCN(c3cnnc4c(Cl)cccc34)CC2)c1
33 | 1.27 µM | 1.15 µM | > 20 µM |  | 1.07 µM |  |  |  |  |  |  |  |  | C[C@H]1CN(c2cnnc3c(Cl)cccc23)CCN1c1cc(Cl)cc(Cl)c1
34 | 0.498 µM | 0.647 µM | > 20 µM |  | 1.32 µM |  |  |  |  |  |  |  |  | Nc1cc(Cl)cc(N2CCN(c3cnnc4c(Cl)cccc34)CC2)c1
35 | > 20 µM | > 20 µM | > 20 µM |  | > 20 µM |  |  |  |  |  |  |  |  | Clc1cccc(N2CCN(c3ncnc4ccccc34)CC2)c1
36 | 0.656 µM | 0.956 µM | > 20 µM |  | 1.28 µM |  |  |  |  |  |  |  |  | Oc1cc(O)cc(N2CCN(c3cnnc4c(Cl)cccc34)CC2)c1
